Data on 31 molecules can be found in patent US20090186832A1 (priority 2008, published 2009).

Where “and” joins values, the source holds several entries; their conditions need not be identical. Equal values may be shown once. Where a name gives a salt, the structure may show the parent alone. Read-outs that look alike come from different tables or passages of the source. Marks after values point to notes of the source that are not given here.

For series [1] the following is noted: for Meptazinol T>50% Cmax: analyte meptazinol, oral 1 mg meptazinol free base equivalents/kg.
The conditions of series [2]: dog, in vivo.
For series [3] the following is noted: for Simulated gastric fluid (pH 1.1): % remaining after 2 h/37° C. / Simulated intestinal fluid (pH 6.8): % remaining after 2 h/37° C.: simulated gi fluid.
For series [4] the following is noted: dog, in vivo; for Cmax (mean ng/mL ± SD) / AUC (mean ngh/mL ± SD): po.
[5] abbreviates: plasma meptazinol, oral 1 mg meptazinol free base/kg, group 1 dogs (G1).

Take `CCC1(c2cccc(OC(=O)NC(C)C(=O)NC(C)C(=O)O)c2)CCCCN(C)C1.O=C(O)C(F)(F)F` (mixture of isomers) [Meptazinol ala-ala dipeptide TFA salt]: in series [1] (setting [5]), the “AUC (mean ngh/mL ± SD)” value amounted to 11.4 ± 2.9 ngh/mL and the “Cmax (mean ng/mL ± SD)” value turned out to be 2.73 ± 1.28 ng/mL.
For the molecule `CCC1(c2cccc(OC(=O)NC(C)C(=O)O)c2)CCCCN(C)C1.Cl` (mixture of isomers) [Meptazinol alanine carbamate HCl salt], in series [1] (dog, in vivo), the “Mean relative bioavailability %” value is listed as 116%. For the same molecule, in series [1] (dog, in vivo, po), the “AUC (mean ngh/mL ± SD)” value is on record as 16.3 ± 3.6 and the “Cmax (mean ng/mL ± SD)” value came to 5.2 ± 1.59 ng/mL.
As to `CCC1(c2cccc(OC(=O)NC(CC(=O)O)C(=O)O)c2)CCCCN(C)C1.O=C(O)C(F)(F)F` (mixture of isomers) [Meptazinol apartic acid carbamate TFA salt], in series [1] (dog, in vivo), the “Mean relative bioavailability %” value is reported as 273%. Moreover, in series [1] (dog, in vivo, po), the “AUC (mean ngh/mL ± SD), *AUC0-t” value is recorded as 34.8* ± 1.0 and the “Cmax (mean ng/mL ± SD)” value was determined as 2.65 ± 0.34 ng/mL.
In the case of `CCC1(c2cccc(OC(=O)NC(CC(C)C)C(=O)O)c2)CCCCN(C)C1.O=C(O)C(F)(F)F` (mixture of isomers) [Meptazinol leucine carbamate TFA salt], the “Mean relative bioavailability %” value in series [1] (dog, in vivo) came to 70%. Also, in series [1] (dog, in vivo, po), the “AUC (mean ngh/mL ± SD)” value was 9.27 ± 1.6 and the “Cmax (mean ng/mL ± SD)” value is on record as 3.32 ± 1.4 ng/mL.
On to `CCC1(c2cccc(OC(=O)NC(Cc3c[nH]c4ccccc34)C(=O)O)c2)CCCCN(C)C1.O=C(O)C(F)(F)F` (mixture of isomers) [Meptazinol tryptophan carbamate TFA salt], for which the “Mean relative bioavailability %” value in series [1] (dog, in vivo) worked out at 149%. Besides, in series [1] (dog, in vivo, po), the “AUC (mean ngh/mL ± SD), *AUC0-t” value was 19.1* ± 8.9 and the “Cmax (mean ng/mL ± SD)” value was found to be 8.21 ± 2.56 ng/mL.
For `CCC1(c2cccc(OC(=O)NC(Cc3ccc(O)cc3)C(=O)O)c2)CCCCN(C)C1.O=C(O)C(F)(F)F` (mixture of isomers) [Meptazinol tyrosine carbamate TFA salt], in that order: 52%, 6.61* ± 0.70 and 2.23 ± 0.16 ng/mL.
Regarding `CCC1(c2cccc(OC(=O)NC(C(=O)OC)C(C)C)c2)CCCCN(C)C1.Cl` (mixture of isomers) [Meptazinol valine carbamate methyl ester HCl], in series [1] (dog, in vivo), the “Mean relative bioavailability %” value was 606%. Besides, in series [1] (dog, in vivo, po), the “AUC (mean ngh/mL ± SD)” value came to 78.1 ± 17.1 and the “Cmax (mean ng/mL ± SD)” value worked out at 44.8 ± 8.2 ng/mL.
As for `CCC1(c2cccc(OC(=O)NCC(=O)O)c2)CCCCN(C)C1.O=C(O)C(F)(F)F` (racemic) [Meptazinol glycine carbamate TFA salt], in series [1] (dog, in vivo), the “Mean relative bioavailability %” value is 79%. For the same molecule, in series [1] (dog, in vivo, po), the “AUC (mean ngh/mL ± SD), *AUC0-t” value is 10.2* ± 3.4 and the “Cmax (mean ng/mL ± SD)” value came out at 2.51 ± 0.90 ng/mL.
For the molecule `CCC(C)[C@@H](NC(=O)Oc1ccc2c3c1OC1[C@@]4(OC)CC[C@@]5(C[C@@H]4[C@@](C)(O)C(C)(C)C)[C@@H](C2)N(CC2CC2)CC[C@]315)C(=O)O` (some centres unmarked) [Buprenorphine isoleucine carbamate], in series [2] (beagle, po), the “Cmax (mean ng/mL ± SD)” value was 1.25 ± 0.51 ng/mL and the “Mean relative bioavailability %” value is on record as 110%. In addition, the “AUC (mean ngh/mL ± SD)” value in series [2] is reported as 13.6 ± 3.9.
Consider `COC12CCC3(CC1C(C)(O)C(C)(C)C)C1Cc4ccc(OC(=O)NC(CCCCN)C(=O)O)c5c4C3(CCN1CC1CC1)C2O5` (centres unmarked) [Buprenorphine lysine carbamate], for which, in series [2], the “AUC (mean ngh/mL ± SD)” value stood at 4.70, the “Cmax (mean ng/mL ± SD)” value is reported as 0.25 ± 0.19 ng/mL and the “Mean relative bioavailability %” value amounted to 38%.
For `COC12CCC3(CC1C(C)(O)C(C)(C)C)C1Cc4ccc(OC(=O)NC(CC(=O)O)C(=O)O)c5c4C3(CCN1CC1CC1)C2O5` (centres unmarked) [Buprenorphine-Asp-Carbamate], in series [3], the “pH 10.0 buffer: % remaining after 2 h/20° C.” value (shortened to “pH 10.0 buffer: % remaining”) is 85%, the “Distilled water (pH 5.9): % remaining after 2h/20° C.” value (“Distilled water (pH 5.9): % remaining” for short) was found to be 100%, the “Simulated gastric fluid (pH 1.1): % remaining after 2 h/37° C.” value was 100% and the “Simulated intestinal fluid (pH 6.8): % remaining after 2 h/37° C.” value is 99%.
On to `CCC(C)[C@H](NC(=O)Oc1cccc(C2(CC)CCCCN(C)C2)c1)C(=O)O` (some centres unmarked) [Meptazinol isoleucine carbamate TFA salt], for which, in series [1] (setting [5]), the “AUC (mean ngh/mL ± SD)” value amounted to 34.9 ± 11 ngh/mL.
The same measure, in the same setting: for `CCC1(c2cccc(OC(=O)N[C@H](C(=O)N[C@@H](C)C(=O)O)C(C)C)c2)CCCCN(C)C1` (some centres unmarked) [Meptazinol val-ala dipeptide TFA salt] the value was 36.5 ± 13 ngh/mL; for `CCC1(c2cccc(OC(=O)N[C@H](C(=O)NCC(=O)O)C(C)C)c2)CCCCN(C)C1` (some centres unmarked) [Meptazinol val-gly dipeptide TFA salt], 39.9 ± 17 ngh/mL; for `CCC1(c2cccc(OC(=O)N[C@H](C(=O)N[C@H](C(=O)O)C(C)C)C(C)C)c2)CCCCN(C)C1` (stereo partly drawn) [Meptazinol val-val dipeptide TFA salt, meptazinol-(S)-valine-(S)-valine carbamate trifluoroacetate], 45.0 ± 12 ngh/mL.
On to `CCC1(c2cccc(OC(=O)N[C@H](C(=O)O)C(C)C)c2)CCCCN(C)C1` (some centres unmarked) [Meptazinol valine carbamate HCl, 2-[3-(3-Ethyl-1-methyl-azepin-3-yl)-phenoxycarbonylamino]-3-methyl-butyric acid hydrochloride], for which the “Meptazinol T>50% Cmax” value in series [1] (individual dogs 1-5, hydrochloride) is 0.5 h (3×) and 1.5 h (2×); in series [1] (median value), 0.5^a h. The “AUC (mean ngh/mL ± SD)” value in series [1] (plasma meptazinol, oral 1 mg meptazinol free base/kg, group 2 dogs (G2), hydrochloride) was 67.6 ± 9.2 ngh/mL.
On to `CCC1(c2cccc(OC(=O)N[C@H](C(=O)O)C(C)C)c2)CCCCN(C)C1` (stereo partly drawn) [Meptazinol valine carbamate TFA salt, meptazinol-(S)-valine carbamate trifluoroacetate], for which the “AUC (mean ngh/mL ± SD)” value in series [1] (setting [5]) is reported as 67.7 ± 25 ngh/mL.
With `CCC1(c2cccc(OC(=O)N[C@H](C(=O)O)C(C)C)c2)CCCCN(C)C1` (some centres unmarked) [Meptazinol valine carbamate camsylate], in series [1] (setting [5]), the “AUC (mean ngh/mL ± SD)” value is on record as 62.4 ± 20.4 ngh/mL.
Take `CCC1(c2cccc(OC(=O)N[C@H](C(=O)O)C(C)C)c2)CCCCN(C)C1` (some centres unmarked) [Meptazinol valine carbamate zwitterion]: the “AUC (mean ngh/mL ± SD)” value in series [1] (plasma meptazinol, oral 1 mg meptazinol free base/kg, group 2 dogs (G2)) is given as 84.9 ± 40.6 ngh/mL.
On to `CCC1(c2cccc(OC(=O)N[C@H](C(=O)O)C(C)C)c2)CCCCN(C)C1` (some centres unmarked) [Meptazinol-Val-Carbamate], for which, in series [3], the “pH 10.0 buffer: % remaining” value is recorded as 66%.
In the case of `CN1CC[C@]23c4c5ccc(O)c4O[C@H]2C(=O)CC[C@@]3(O)[C@H]1C5` [Oxymorphone HCl, reference compound], the “Cmax (mean ng/mL ± SD)” value in series [4] (Beagle, 0.5 mg/kg) came out at 3.8 ± 0.77 ng/mL. In addition, the “AUC (mean ngh/mL ± SD)” value in series [4] was found to be 12.2 ± 1.6.
`CN1CC[C@]23c4c5ccc(OC(=O)NCC(=O)O)c4O[C@H]2C(=O)CC[C@@]3(O)[C@H]1C5.O=C(O)C(F)(F)F` [Oxymorphone glycine carbamate TFA]: in series [4], the “Mean relative bioavailability %” value amounted to 554%, the “AUC (mean ngh/mL ± SD)” value came out at 67.9 ± 34.1 and the “Cmax (mean ng/mL ± SD)” value was determined as 21 ± 10.9 ng/mL.
`CSCC[C@@H](NC(=O)Oc1ccc2c3c1OC1C(=O)CC[C@@]4(O)[C@@H](C2)N(C)CC[C@]314)C(=O)O` (some centres unmarked) [Oxymorphone methionine carbamate TFA]: in series [4] (Beagle, 0.5 mg/kg), the “Mean relative bioavailability %” value is listed as 436% and the “Cmax (mean ng/mL ± SD)” value is listed as 13.8 ± 4.6 ng/mL. Also, the “AUC (mean ngh/mL ± SD)” value in series [4] amounted to 55.4 ± 15.2.
Regarding `CN1CC[C@]23c4c5ccc(OC(=O)N[C@@H](Cc6ccccc6)C(=O)O)c4O[C@H]2C(=O)CC[C@@]3(O)[C@H]1C5.Cl` [Oxymorphone phenylalanine carbamate HCl], in series [4], the “Mean relative bioavailability %” value was found to be 244%, the “AUC (mean ngh/mL ± SD)” value is 29.5 ± 2.2 and the “Cmax (mean ng/mL ± SD)” value is listed as 5.45 ± 1.32 ng/mL.
In the same order, the values of `CN1CC[C@]23c4c5ccc(OC(=O)N[C@@H](Cc6ccc(O)cc6)C(=O)O)c4O[C@H]2C(=O)CC[C@@]3(O)[C@H]1C5.O=C(O)C(F)(F)F` [Oxymorphone tyrosine carbamate TFA] are 157%, 17.3 ± 3.0 and 4.62 ± 1.12 ng/mL.
For the molecule `CSCC[C@@H](NC(=O)Oc1ccc2c3c1OC1C(=O)CC[C@@]4(O)[C@@H](C2)N(C)CC[C@]314)C(=O)O` (some centres unmarked) [Oxymorphone-Methio-Carbamate], in series [3], the “pH 10.0 buffer: % remaining” value worked out at 8%, the “Distilled water (pH 5.9): % remaining” value worked out at 100%, the “Simulated gastric fluid (pH 1.1): % remaining after 2 h/37° C.” value is 100% and the “Simulated intestinal fluid (pH 6.8): % remaining after 2 h/37° C.” value was 96%.
Take `CN1CC[C@]23c4c5ccc(OC(=O)N[C@@H](Cc6ccccc6)C(=O)O)c4O[C@H]2C(=O)CC[C@@]3(O)[C@H]1C5` [Oxymorphone-Phe-Carbamate]: in series [3], the “pH 10.0 buffer: % remaining” value was determined as 17%, the “Distilled water (pH 5.9): % remaining” value is recorded as 100%, the “Simulated gastric fluid (pH 1.1): % remaining after 2 h/37° C.” value is 100% and the “Simulated intestinal fluid (pH 6.8): % remaining after 2 h/37° C.” value was 82%.
Take Oxymorphone isoleucine carbamate TFA: in series [4], the “Mean relative bioavailability %” value is listed as 570%, the “AUC (mean ngh/mL ± SD)” value is listed as 65.8 ± 32 and the “Cmax (mean ng/mL ± SD)” value came to 17.2 ± 9.9 ng/mL.
For Oxymorphone valine carbamate TFA, in that order: 816%, 51.2 ± 35 and 14.6 ± 8.69 ng/mL.
On to Oxymorphone-Isoleu-Carbamate, for which, in series [3], the “pH 10.0 buffer: % remaining” value is given as 36%, the “Distilled water (pH 5.9): % remaining” value is 100%, the “Simulated gastric fluid (pH 1.1): % remaining after 2 h/37° C.” value was 100% and the “Simulated intestinal fluid (pH 6.8): % remaining after 2 h/37° C.” value is 97%.
As to Oxymorphone-Val-Carbamate, in series [3], the “pH 10.0 buffer: % remaining” value was determined as 32%, the “Distilled water (pH 5.9): % remaining” value came out at 100%, the “Simulated gastric fluid (pH 1.1): % remaining after 2 h/37° C.” value is given as 100% and the “Simulated intestinal fluid (pH 6.8): % remaining after 2 h/37° C.” value is 97%.
